Experimental data taken from ChEMBL document CHEMBL1128055, “Selective cytotoxic cyclolignans” (Bioorg Med Chem Lett, 1995).

Columns and labels:
[1] = tested on: P388; assay: Antineoplastic activity against P-388 (murine leukemia) cell line.; type: functional, cell-based; details: Mus musculus
[2] = tested on: CV-1; assay: Antineoplastic activity against CV-1 (monkey kidney fibroblast) cell line.; type: functional, cell-based, Cercopithecidae; details: Chlorocebus aethiops
[3] = tested on: HT-29; assay: Antineoplastic activity against HT-29 (human colon carcinoma) cell line.; type: functional, cell-based
[4] = tested on: SK-MEL-28; assay: Antineoplastic activity against MEL-28 human melanoma carcinoma cell cultures; type: functional, cell-based
[5] = tested on: A549; assay: Antineoplastic activity against A-549 (human lung carcinoma) cell line.; type: functional, cell-based
[6] = Selectivity index was evaluated by antineoplastic activity against HT-29 cells and compared with cytotoxicity against normal cells; type: functional

Row | IC50 [1] [µM] | IC50 [3] [µM] | IC50 [4] [µM] | IC50 [5] [µM] | SMILES | IC50 [2] [µM] | Selectivity index [6]
1 | 1.94 | 0.039 | 4.84 | 0.97 | COC(=O)[C@@H]1C(/C=N/Nc2ccccc2)=Cc2cc3c(cc2[C@H]1c1cc(OC)c(OC)c(OC)c1)OCO3 | 1.94 | 50
2 | 1.02 | 2.05 | 0.51 | 1.02 | COc1cc([C@@H]2c3cc4c(cc3C=C(/C=N/Nc3ccccc3)[C@H]2CO)OCO4)cc(OC)c1OC | 1.02 | 
3 | 5.63 | 5.63 | 5.63 | 5.63 | COC(=O)[C@H]1[C@H](c2cc(OC)c(OC)c(OC)c2)c2cc3c(cc2C(=O)[C@H]1CO)OCO3 | 5.63 | 
4 | 0.22 | 0.45 |  | 0.22 | COC(=O)[C@H]1[C@H](c2cc(OC)c(OC)c(OC)c2)c2cc3c(cc2[C@H](O)[C@H]1CO)OCO3 | 0.45 | 
5 | 10.9 | > 21.9 | > 21.9 | 21.9 | CO/N=C/[C@@H]1Cc2cc3c(cc2[C@@H](c2cc(OC)c(OC)c(OC)c2)[C@@H]1C(=O)OC)OCO3 | > 21.9 | 
6 | 0.57 | 0.57 | 1.14 | 0.57 | COC(=O)[C@@H]1C(/C=N/N)=Cc2cc3c(cc2[C@H]1c1cc(OC)c(OC)c(OC)c1)OCO3 | 2.27 | 
7 | 0.22 | 0.22 | 0.22 | 0.22 | CO/N=C/C1=Cc2cc3c(cc2[C@@H](c2cc(OC)c(OC)c(OC)c2)[C@@H]1C(=O)OC)OCO3 | 0.22 | 
8 | 0.058 | 0.12 | 0.058 | 0.058 | COC(=O)[C@@H]1[C@H](CO)Cc2cc3c(cc2[C@H]1c1cc(OC)c(OC)c(OC)c1)OCO3 | 0.058 | 
9 | 0.21 | 0.21 | 0.21 | 0.21 | COC(=O)[C@@H]1[C@H](COC(C)=O)Cc2cc3c(cc2[C@H]1c1cc(OC)c(OC)c(OC)c1)OCO3 | 0.21 | 
10 | 0.25 | 0.25 | 0.25 | 0.25 | COc1cc([C@@H]2c3cc4c(cc3C=C(C=O)[C@H]2CO)OCO4)cc(OC)c1OC | 0.63 | 
11 | 2.27 | 2.27 | 2.27 | 2.27 | COC(=O)[C@@H]1C(/C=N/O)=Cc2cc3c(cc2[C@H]1c1cc(OC)c(OC)c(OC)c1)OCO3 | 2.27 | 
12 | 2.34 | 2.34 | 2.34 | 2.34 | COC(=O)[C@H]1[C@H](c2cc(OC)c(OC)c(OC)c2)c2cc3c(cc2C[C@H]1C=O)OCO3 | 2.34 | 
13 | 1.1 | 1.1 |  | 1.1 | COC(=O)[C@H]1[C@H](c2cc(OC)c(OC)c(OC)c2)c2cc3c(cc2[C@H](OC(C)=O)[C@H]1COC(C)=O)OCO3 | 1.1 | 
14 | 0.48 | 0.048 | 0.48 | 0.19 | COC(=O)[C@@H]1C(/C=N/NCC(F)(F)F)=Cc2cc3c(cc2[C@H]1c1cc(OC)c(OC)c(OC)c1)OCO3 | 0.48 | 10

Row | SMILES | IC50 [1] [µM] | IC50 [3] [µM] | IC50 [4] [µM] | IC50 [5] [µM] | IC50 [2] [µM] | Selectivity index [6]
15 | COc1cc([C@@H]2c3cc4c(cc3C[C@H]3COC(=O)[C@@H]32)OCO4)cc(OC)c1OC [DESOXYPODOPHYLLOTOXIN] | 0.01 | 0.006 |  | < 0.006 | 0.006 | 
16 | COc1cc([C@@H]2c3cc4c(cc3C(=O)[C@H]3COC(=O)[C@@H]23)OCO4)cc(OC)c1OC [PICROPODOPHYLLONE] | 12 | 12 |  | 12 | 48 | 
17 | COc1cc([C@@H]2c3cc4c(cc3[C@H](O)[C@H]3COC(=O)[C@H]23)OCO4)cc(OC)c1OC [PODOFILOX] | 0.012 | 0.029 |  | 0.012 | 0.029 | 
18 | COC(=O)[C@@H]1C(C=O)=Cc2cc3c(cc2[C@H]1c1cc(OC)c(OC)c(OC)c1)OCO3 [PODOPHYLLIC ALDEHYDE] | 0.23 | 0.012 | 0.23 | 0.12 | 0.23 | 20
